# Laboratory results published in patent US20230365624A1, “NOVEL ANGIOTENSIN I-CONVERTING ENZYME (ACE) INHIBITORY PEPTIDES” (Thai Union Group Public Company Limited, priority 2020, published 2023).
# Marks after values point to notes of the source that are not given here. No end group written: not given here.
# What was measured:
# [1] = biological target: angiotensin I-converting enzyme (ACE) (Homo sapiens, UniProt P12821); test: ACE inhibitory activity assay (HHL substrate, hippuric acid absorbance at 228 nm); assay type: biochemical; conditions: for inhibition at 1000 µg/mL: synthetic peptides at 1 mg/ml
# Method: ACE inhibitory activity assay was carried out according to the methods of Cushman and Cheung (1971) and Wu et al. (2002) with some modifications. A reaction mixture containing 50 µl of hydrolysate or peptides, 150 µl of 8.3 mM Hippuryl-L-histidyl-L-leucine (HHL), and 50 µl of ACE (25 mU/ml) was incubated at 37° C. for 1 h. Subsequently, 250 µl of 1 M HCl was added to terminate the reaction. The released hippuric acid (HA) was extracted by adding 2.5 ml ethyl acetate, and the mixture was mixed with a vortex for 1 min and left at room temperature for 1 h. Then, 2 ml of the upper layer was transferred into beaker and dried at 80° C. to remove ethyl acetate. Finally, 1 ml of deionized water was added to dissolve the HA. Absorbance was measured at 228 nm. The percentage of ACE inhibition was calculated as follows: […]
# where A is the absorbance at 228 nm of a reaction containing ACE without hydrolysate; B is the absorbance at 228 nm of a reaction containing ACE previously inactivated by adding HCl in the absence of hydrolysate; C is the absorbance at 228 nm of a reaction in the presence of ACE and hydrolysate; and D is the absorbance at 228 nm of a reaction containing ACE previously inactivated by adding HCl in the presence of hydrolysate. The IC50 was defined as the concentration of inhibitor required to inhibit 50% of the ACE activity. Specific inhibitory activity was calculated as ACE inhibition (%) divided by total peptide content (mg).
# [2] = tested on: GI enzymes (pepsin and pancreatin); test: In vitro gastrointestinal (GI) digestion of synthetic peptides, with ACE inhibitory activity and α-amino group content before and after; assay type: in vitro ADME; conditions: pepsin pH 2.0, 37° C., 1 h, then pancreatin pH 7.5, 37° C., 2 h (FIG. 6)
# Method: It is necessary for ACE inhibitory peptides to retain its activity in GI tract so that it can be absorbed into the bloodstream, where the peptide inhibitors can show their hypotensive effect. In vitro gastrointestinal digestion provides an easy process to imitate antihypertensive activity of peptides under oral administration. […] In vitro GI digestion was simulated according to the method of Zhu et al. (2008) with some modifications. One milligram of each sample was dissolved in 0.5 ml of 0.1 M KCl-HCl, and the pH was adjusted to 2.0 with 6 M HCl. Pepsin (1% enzyme/substrate, w/w) was added, and the mixture was incubated in a shaking water bath at 37° C. for 1 h, and the pH was then adjusted to pH 7.5. […] ACE inhibitory activity and α-amino groups content of the peptides before and after in vitro GI digestion were measured. […]
# ACE inhibitory activity assay was carried out according to the methods of Cushman and Cheung (1971) and Wu et al. (2002) with some modifications. […] Absorbance was measured at 228 nm. The percentage of ACE inhibition was calculated as follows: […]
# Content of α-amino groups was performed according to Adler-Nissen (1979). […] The mixture was left at room temperature for 30 min before an absorbance at 420 nm was monitored. […] The content of α-amino groups was expressed as leucine equivalents.
# ACE = ACE (Homo sapiens, UniProt P12821); conditions: Wu et al. (2008); Balti et al. (2010); read-out: IC50 (ACE inhibition); cited from earlier work
# [3] = synthesized in silico GI digestion products of VR9
# Chain of ACE (P12821 30-1306, species assumed): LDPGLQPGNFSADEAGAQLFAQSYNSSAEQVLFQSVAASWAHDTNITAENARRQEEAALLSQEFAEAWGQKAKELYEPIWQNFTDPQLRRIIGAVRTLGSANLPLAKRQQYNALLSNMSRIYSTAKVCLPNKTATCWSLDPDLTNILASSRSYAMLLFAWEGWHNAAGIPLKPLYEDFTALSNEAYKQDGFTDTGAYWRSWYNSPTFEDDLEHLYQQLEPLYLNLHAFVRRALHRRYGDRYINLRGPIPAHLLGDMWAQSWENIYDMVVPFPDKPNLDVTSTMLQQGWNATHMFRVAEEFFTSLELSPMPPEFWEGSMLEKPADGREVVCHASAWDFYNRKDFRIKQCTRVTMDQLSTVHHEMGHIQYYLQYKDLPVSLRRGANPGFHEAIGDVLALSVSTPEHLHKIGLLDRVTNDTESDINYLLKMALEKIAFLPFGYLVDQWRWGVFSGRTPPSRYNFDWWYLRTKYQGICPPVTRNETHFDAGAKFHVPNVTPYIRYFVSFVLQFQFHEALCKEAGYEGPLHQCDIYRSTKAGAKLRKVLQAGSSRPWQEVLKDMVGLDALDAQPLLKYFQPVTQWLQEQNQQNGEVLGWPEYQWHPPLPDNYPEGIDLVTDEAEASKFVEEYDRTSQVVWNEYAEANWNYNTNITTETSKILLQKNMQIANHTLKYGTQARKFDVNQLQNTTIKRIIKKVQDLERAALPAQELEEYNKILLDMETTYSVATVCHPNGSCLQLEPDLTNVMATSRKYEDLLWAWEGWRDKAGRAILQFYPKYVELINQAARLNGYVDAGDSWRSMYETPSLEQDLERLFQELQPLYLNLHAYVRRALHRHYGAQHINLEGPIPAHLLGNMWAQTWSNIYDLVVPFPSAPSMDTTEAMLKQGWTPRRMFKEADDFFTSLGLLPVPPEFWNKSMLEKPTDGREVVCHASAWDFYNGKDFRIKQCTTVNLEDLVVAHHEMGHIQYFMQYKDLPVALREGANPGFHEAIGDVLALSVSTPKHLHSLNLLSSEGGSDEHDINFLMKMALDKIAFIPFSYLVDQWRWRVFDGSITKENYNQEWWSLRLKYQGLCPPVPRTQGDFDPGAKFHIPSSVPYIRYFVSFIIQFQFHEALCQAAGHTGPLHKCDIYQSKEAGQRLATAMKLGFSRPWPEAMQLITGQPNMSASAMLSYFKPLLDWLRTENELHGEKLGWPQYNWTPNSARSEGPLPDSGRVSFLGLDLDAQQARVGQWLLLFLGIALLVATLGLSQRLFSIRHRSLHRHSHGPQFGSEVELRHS
# Chain of angiotensin I-converting enzyme (ACE) (P12821 30-1306, species assumed): as above
Substance,IC50 [1] [nM],inhibition at 1000 µg/mL [1] [%],IC50 (ACE) [nM],further results
VSVVQYSR [VSVVQYSR],950,94.15 ± 0.2,,
VIYSRINCR [VIYSRINCR],240,97.02 ± 0.46,,Decrease of ACE inhibitory activity after GI digestion [2]: ~14%
NLLPHR [NLLPHR],1240,94.9 ± 0.97,,Decrease of ACE inhibitory activity after GI digestion [2]: approximately 30%
INCR,,,,"ACE inhibitory activity (%) At 1 µg/ml ([1]; 1 µg/ml, synthesized in silico GI digestion products of VR9): 29.10 ± 1.06^c %; ACE inhibitory activity (%) At 1 mg/ml [1, 3]: 100.79 ± 0.71^c %"
VYAP,,,6100,
VIY [in silico GI digestion product of VR9],,,,"ACE inhibitory activity (%) At 1 mg/ml [1, 3]: 18.51 ± 1.12^a %"
MAW,,,16300,
VIIF,,,8700,
